Series [1] relates to Amaranthus retoflexus (AMARE). Nature of the series: Pre-emergence biological efficacy (percentage damage). The settings on record: Amaranthus retroflexus, 312 h, dose 1,000 g/ha, evaluated after 13 days, 100=total damage, 0=no damage. In kind it is in vivo. The procedure, abridged:
(§1)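 Sow seeds in pots of standard soil; hold 1 day in glasshouse (24/16 °C, 14 h light, 65% humidity). Spray aqueous solution from acetone/water (50:50) with 0.5% Tween 20 at 250 or 1000 g/ha. Grow on, watering twice daily; rate damage at 13 days.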

The test system of series [2] is Alopecurus myosuroides (ALOMY). Described as above. In kind it is in vivo. The settings on record: Alopecurus myosuroides, 312 h, dose 1,000 g/ha, evaluated after 13 days, 100=total damage, 0=no damage. The procedure, abridged:
as §1

The test system of series [3] is Echinochloa crus-galli (ECHCG). The series is described as above. In kind it is in vivo. Conditions: Echinochloa crus-galli, 312 h, dose 1,000 g/ha, evaluated after 13 days, 100=total damage, 0=no damage. Put shortly: as §1
Series [4] deals with Setaria faberi (SETFA). The description is as above. Conditions: Setaria faberi, 312 h, dose 1,000 g/ha, evaluated after 13 days, 100=total damage, 0=no damage. In kind it is in vivo. The procedure, abridged:
as §1

For series [5], the system named is Solanum nigrum (SOLNI). The series is described as above. In kind it is in vivo. The settings on record: Solanum nigrum, 312 h, dose 1,000 g/ha, evaluated after 13 days, 100=total damage, 0=no damage. The procedure, abridged:
as §1

The subject of series [6] is Ipomea hederaceae (IPOHE). Described as above. In kind it is in vivo. The settings on record: Ipomoea hederacea, 312 h, dose 1,000 g/ha, evaluated after 13 days, 100=total damage, 0=no damage. The procedure, abridged: as §1
Series [7] deals with Amaranthus retoflexus (AMARE). Nature of the series: Post-emergence biological efficacy (percentage damage). In kind it is in vivo. Conditions: Amaranthus retroflexus, 312 h, dose 1,000 g/ha, evaluated after 13 days, 100=total damage, 0=no damage. The procedure, abridged: (§2)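 Percentage damage (0 no damage to 100 total) was assessed 13 days after spraying plants raised for 8 days in pots. Test compound was applied as an aqueous acetone/water (50:50) spray containing 0.5% Tween 20 to give 250 or 1000 g/ha.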

For series [8], the system named is Alopecurus myosuroides (ALOMY). Described as above. In kind it is in vivo. The settings on record: Alopecurus myosuroides, 312 h, dose 1,000 g/ha, evaluated after 13 days, 100=total damage, 0=no damage. The procedure, abridged:
as §2

The subject of series [9] is Echinochloa crus-galli (ECHCG). The series is described as above. In kind it is in vivo. The settings on record: Echinochloa crus-galli, 312 h, dose 1,000 g/ha, evaluated after 13 days, 100=total damage, 0=no damage. Put shortly: as §2
The test system of series [10] is Setaria faberi (SETFA). The series is described as above. The settings on record: Setaria faberi, 312 h, dose 1,000 g/ha, evaluated after 13 days, 100=total damage, 0=no damage. In kind it is in vivo. Put shortly: as §2
Series [11] deals with Solanum nigrum (SOLNI). Described as above. In kind it is in vivo. The settings on record: Solanum nigrum, 312 h, dose 1,000 g/ha, evaluated after 13 days, 100=total damage, 0=no damage. Put shortly: as §2
For series [12], the system named is Ipomea hederaceae (IPOHE). The description is as above. In kind it is in vivo. The settings on record: Ipomoea hederacea, 312 h, dose 1,000 g/ha, evaluated after 13 days, 100=total damage, 0=no damage. The procedure, abridged: as §2

The structures appear in SMILES notation.

The compound `C=Cc1c(OC)nc(-c2ccc(Cl)c(OC)c2F)nc1C(=O)OC` [Compound 27-398, 2-(4-chloro-2-fluoro-3-methoxyphenyl)-5-ethenyl-4-methoxy-6-methoxycarbonyl-pyrimidine] gave a melting point of 107 to 108 °C. This compound also registered a pest or weed control at 1000 g/ha in series [1] of 0%. This compound had a pest or weed control at 1000 g/ha in series [2] of 0%. The pest or weed control at 1000 g/ha in series [3] worked out at 0%. The pest or weed control at 1000 g/ha in series [4] came out at 0%. In series [5], this compound displayed a pest or weed control at 1000 g/ha of 0%. The pest or weed control at 1000 g/ha in series [6] is 0%. The same compound returned a pest or weed control at 1000 g/ha in series [7] of 0%. This compound came in with a pest or weed control at 1000 g/ha in series [8] of 0%. In series [9], the pest or weed control at 1000 g/ha turned out to be 0%. The compound further yielded a pest or weed control at 1000 g/ha in [10] of 0%. In series [11], this compound had a pest or weed control at 1000 g/ha of 20%. This compound came in with a pest or weed control at 1000 g/ha in [12] of 40%.

`COC(=O)c1nc(-c2ccc(Cl)c(N(C)C)c2F)nc(N)c1C1CC1` [Compound 33-58, 4-amino-2-(4-chloro-3-dimethylamino-2-fluorophenyl)-5-cyclopropyl-6-methoxycarbonylpyrimidine] registered a melting point of 156 to 158 °C. Also, the pest or weed control at 1000 g/ha in series [1] is 0%. This compound also had a pest or weed control at 1000 g/ha in series [2] of 0%. Also, the pest or weed control at 1000 g/ha in [3] came to 0%. This compound also returned a pest or weed control at 1000 g/ha in [4] of 0%. The same compound gave a pest or weed control at 1000 g/ha in series [5] of 0%. The pest or weed control at 1000 g/ha in series [6] stood at 0%. The pest or weed control at 1000 g/ha in [7] came out at 10%. Also, in [8], the pest or weed control at 1000 g/ha is 10%. The same compound registered a pest or weed control at 1000 g/ha in series [9] of 10%. The pest or weed control at 1000 g/ha in [10] came out at 60%. The pest or weed control at 1000 g/ha in [11] was found to be 10%. For the same compound, the pest or weed control at 1000 g/ha in series [12] was 0%.

On to `C=Cc1c(N)nc(-c2ccc(C)cc2)nc1C(=O)OC` [Compound 36-61, 4-amino-5-ethenyl-6-methoxycarbonyl-2-(4-methylphenyl)-pyrimidine], for which the melting point was in the range of 122 to 123 °C. In [1], this compound displayed a pest or weed control at 1000 g/ha of 100%. Also, the pest or weed control at 1000 g/ha in [2] stood at 70%. In series [3], this compound showed a pest or weed control at 1000 g/ha of 90%. The same compound showed a pest or weed control at 1000 g/ha in series [4] of 80%. The compound also displayed a pest or weed control at 1000 g/ha in series [5] of 100%. The same compound displayed a pest or weed control at 1000 g/ha in series [6] of 100%. In series [7], the pest or weed control at 1000 g/ha is 100%. This compound registered a pest or weed control at 1000 g/ha in [8] of 70%. Moreover, the pest or weed control at 1000 g/ha in series [9] worked out at 90%. In [10], this compound came in with a pest or weed control at 1000 g/ha of 80%. This compound showed a pest or weed control at 1000 g/ha in [11] of 80%. Further, the pest or weed control at 1000 g/ha in series [12] is 90%.
